Assay results: PMC2774621, “Homogenous Fluorescent Assays for Characterizing Small-Molecule Activators of AMP-Activated Protein Kinase (AMPK)” (Current Chemical Genomics, 2008)

Key:
[1] = test system: rat-liver or recombinant AMPK (α1β1γ1); design: method as in PMID 16753576; conditions: read-out: EC50 of AMPK activation; cited from earlier work
AMPK α2β1γ1 [2] = biological target: T1, AMPK α2β1γ1 (Homo sapiens, UniProt P54619+P54646); assay: Radiometric kinase assay (SAMS peptide, 32P-ATP); type: biochemical
T1 construct: made in house; host or cells: Sf9 insect cells (baculovirus)
Description: (§1) Kinase reactions were performed at room temperature in 50 mM HEPES pH 7.5, 0.01% BRIJ-35, 10 mM MgCl2, and 1 mM EGTA in a 30 µL assay volume in 96-well plates. For the inhibition experiments, a 2-fold dilution series of inhibitor stock solutions was first prepared in 100% DMSO at 100-fold concentration of inhibitor to be used in the assay. Prior to the assay, 4 µL of each inhibitor concentration was further diluted to 100 µL in assay buffer to prepare a working stock of inhibitor in 4% DMSO at 4-fold the final assay concentration. For the activation experiments, activators were prepared in 100% H2O at 4-fold the concentration to be tested in the assay. Assays were performed as follows: 7.5 µL of the inhibitor or activator working stock was added to a 17.5 µL solution of assay buffer, substrate and [^32P]-ATP (0.5 µCi/well), followed by 5 µL of enzyme to start the assay. All assays were performed in triplicate. The final concentration of SAMS peptide substrate in the reaction was 200 µM. AMPK α1β1γ1 was used at 334 ng/mL (1.8 nM) in the inhibition experiments and 83.3 ng/mL (0.44 nM) in the activation experiments, at an ATP concentration of 35 µM. AMPK α2β1γ1 was used at 1670 ng/mL (8.9 nM) in the inhibition experiments and 267 ng/mL (1.4 nM) in the activation experiments, at an ATP concentration of 65 µM. After 10 minutes, 20 µL of the reaction was spotted onto a p81 filter. The filters were washed three times in 0.5% phosphoric acid, and twice in distilled water before being counted in Beckman Coulter Ready Safe liquid scintillation cocktail using a Beckman Coulter LS6500 Multipurpose Scintillation Counter. Scintillation Counter output (cpm) was used to calculate specific activity (nmole / (min•mg)).
(§2) Data analysis and curve-fitting was performed using GraphPad Prism software (GraphPad Software, Inc, San Diego CA).

AMPK α1β1γ1 = biological target: T2, AMPK α1β1γ1 (Homo sapiens, UniProt P54619+Q13131); assay: TR-FRET activity assay (LanthaScreen, fluorescein-CREBtide); type: biochemical; conditions: ATP 50 µM, substrate 400 nM, read-out: Activator EC50
T2 construct: made in house; host or cells: Sf9 insect cells (baculovirus)
Description: (§3) Activators and inhibitors were prepared as described for the radiometric assay. Assays were performed as follows: 2.5 µL of the inhibitor or activator working stock was added to a 5 µL solution of kinase and substrate, followed by 2.5 µL of ATP to start the assay. Assays were performed in quadruplicate. […] After one hour, a 10 µL solution of EDTA and terbium labeled phospho-specific antibody in 20 mM Tris, pH 7.5 and 0.01% NP-40 was added to a final well volume of 20 µL, a final antibody concentration of 1 nM, and a final EDTA concentration of 10 mM. After a 30 minute incubation at room temperature the assay plate was read on a BMG Pherastar plate reader using the LanthaScreen™ filter module. The TR-FRET ratio was calculated as the intensity of the acceptor signal divided by the intensity of the donor signal.
as §2

AMPK α2β1γ1 [3] = biological target: T1, AMPK α2β1γ1; assay: as above; type: biochemical; conditions: TR-FRET, ATP 150 µM, substrate 400 nM; read-out: Activator EC50
Description: as §3, §2

AMPK α1β1γ1 and α2β1γ1 [4] = biological target: AMPK α1β1γ1 and α2β1γ1 (Homo sapiens, UniProt P54619+P54646); assay: Summary statements across all assay formats (radiometric, TR-FRET, FRET, CHEF); type: biochemical; conditions: read-out: half-maximal stimulatory concentration; all assay formats
Description: as §1
(§4) Kinase reactions were performed in a 10 µL assay volume at room temperature in 384-well low volume plates (Corning model 3676) using the same assay buffer as the radiometric assay. Activators and inhibitors were prepared as described for the radiometric assay. Assays were performed as follows: 2.5 µL of the inhibitor or activator working stock was added to a 5 µL solution of kinase and substrate, followed by 2.5 µL of ATP to start the assay. Assays were performed in quadruplicate. The final concentration of fluorescein-labeled CREBtide peptide substrate (derived from residues 123-136 of CREB protein) in the reaction was 400 nM. AMPK α1β1γ1 was used at 600 ng/mL (3.1 nM) in the inhibition experiments and 200 ng/mL (1.1 nM) in the activation experiments, at an ATP concentration of 50 µM. AMPK α2β1γ1 was used at 5 µg/mL (26.5 nM) in the inhibition experiments and 600 ng/mL (3.2 nM) in the activation experiments, at an ATP concentration of 150 µM. After one hour, a 10 µL solution of EDTA and terbium labeled phospho-specific antibody in 20 mM Tris, pH 7.5 and 0.01% NP-40 was added to a final well volume of 20 µL, a final antibody concentration of 1 nM, and a final EDTA concentration of 10 mM. After a 30 minute incubation at room temperature the assay plate was read on a BMG Pherastar plate reader using the LanthaScreen™ filter module. The TR-FRET ratio was calculated as the intensity of the acceptor signal divided by the intensity of the donor signal.
(§5) Kinase reactions were performed in a 10 µL assay volume at room temperature in 384-well low volume plates (Corning model 3676) using the same assay buffer as the radiometric assay. Inhibitors and activators were prepared as described for the radiometric assays. Assays were performed as follows: 2.5 µL of the inhibitor or activator working stock was added to a 5 µL solution of kinase and substrate, followed by 2.5 µL of ATP to start the assay. All assays were performed in quadruplicate. The final concentration of Z’-LYTE™ S/T23 peptide substrate in the reaction was 2 µM. AMPK α1β1γ1 was used at 79 ng/mL (0.42 nM) in the inhibition experiments and 41 ng/mL (0.22 nM) in the activation experiments, at an ATP concentration of 50 µM. […]

AMPK α1β1γ1 and α2β1γ1 [5] = biological target: T3, AMPK α1β1γ1 and α2β1γ1 (Homo sapiens, UniProt P54619+P54646+Q9Y478); assay: as above; type: biochemical; conditions: α2β1γ1 isoform
T3 construct: made in house; host or cells: Sf9 insect cells (baculovirus)
Description: as §1, §4, §5

AMPK α1β1γ1 and α2β1γ1 [6] = biological target: T4, AMPK α1β1γ1 and α2β1γ1 (Homo sapiens, UniProt P54619+Q13131+Q9Y478); assay: as above; type: biochemical; conditions: α1β1γ1 isoform, any formats
T4 construct: made in house; host or cells: Sf9 insect cells (baculovirus)
Description: as §1, §4, §5

[7] = test system: partially purified human AMPK; design: method as in PMID 8185610; conditions: cited from earlier work
[8] = test system: partially purified rat AMPK; design: method as in PMID 8185610; conditions: cited from earlier work

T1 sequence (P54646 whole entry): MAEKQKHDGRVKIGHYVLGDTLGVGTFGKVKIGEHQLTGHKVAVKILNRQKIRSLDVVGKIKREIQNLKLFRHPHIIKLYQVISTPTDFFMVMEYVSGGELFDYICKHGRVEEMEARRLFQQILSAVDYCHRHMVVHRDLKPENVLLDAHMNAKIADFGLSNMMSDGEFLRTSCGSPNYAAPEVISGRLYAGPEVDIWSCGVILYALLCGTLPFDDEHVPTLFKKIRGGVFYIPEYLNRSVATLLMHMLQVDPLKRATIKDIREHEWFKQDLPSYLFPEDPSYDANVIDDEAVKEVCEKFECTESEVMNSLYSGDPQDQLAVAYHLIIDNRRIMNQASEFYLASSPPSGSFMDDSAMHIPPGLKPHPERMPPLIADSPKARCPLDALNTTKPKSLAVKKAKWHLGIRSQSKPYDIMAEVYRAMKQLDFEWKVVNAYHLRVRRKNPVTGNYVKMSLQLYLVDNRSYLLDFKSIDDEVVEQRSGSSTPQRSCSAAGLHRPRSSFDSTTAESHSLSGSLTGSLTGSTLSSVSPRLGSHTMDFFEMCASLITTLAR
T1 sequence (Q9Y478 whole entry partner): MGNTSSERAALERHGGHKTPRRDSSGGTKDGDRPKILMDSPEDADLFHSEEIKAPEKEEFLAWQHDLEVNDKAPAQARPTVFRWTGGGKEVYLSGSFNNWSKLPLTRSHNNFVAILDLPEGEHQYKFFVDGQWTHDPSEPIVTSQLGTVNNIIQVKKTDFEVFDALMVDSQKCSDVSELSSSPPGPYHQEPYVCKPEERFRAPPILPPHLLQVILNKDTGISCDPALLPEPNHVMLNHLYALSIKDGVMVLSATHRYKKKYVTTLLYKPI
T1 sequence (P54619 whole entry): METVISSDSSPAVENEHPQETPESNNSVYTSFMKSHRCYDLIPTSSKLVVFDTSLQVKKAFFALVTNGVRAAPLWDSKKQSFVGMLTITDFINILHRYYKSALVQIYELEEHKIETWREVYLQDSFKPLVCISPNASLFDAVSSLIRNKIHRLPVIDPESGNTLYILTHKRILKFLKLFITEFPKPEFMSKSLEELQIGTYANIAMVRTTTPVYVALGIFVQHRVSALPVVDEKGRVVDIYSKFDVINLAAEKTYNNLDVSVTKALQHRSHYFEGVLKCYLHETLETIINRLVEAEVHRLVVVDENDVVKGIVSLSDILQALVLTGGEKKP
T3 sequence (P54646 whole entry, canonical isoform): as the sequence (P54646 whole entry) above
T3 sequence (Q9Y478 whole entry, canonical isoform): as the sequence (Q9Y478 whole entry partner) above
T3 sequence (P54619 whole entry, canonical isoform): as the sequence (P54619 whole entry) above
Sequence of AMPK α1β1γ1 and α2β1γ1 (Homo sapiens, UniProt P54619+P54646) (P54619 whole entry): as above
Sequence of AMPK α1β1γ1 and α2β1γ1 (Homo sapiens, UniProt P54619+P54646) (P54646 whole entry): as the sequence (P54646 whole entry) above
Sequence of AMPK α1β1γ1 and α2β1γ1 (Homo sapiens, UniProt P54619+P54646) (Q9Y478 whole entry partner): as the sequence (Q9Y478 whole entry partner) above
T2 sequence (Q13131 whole entry): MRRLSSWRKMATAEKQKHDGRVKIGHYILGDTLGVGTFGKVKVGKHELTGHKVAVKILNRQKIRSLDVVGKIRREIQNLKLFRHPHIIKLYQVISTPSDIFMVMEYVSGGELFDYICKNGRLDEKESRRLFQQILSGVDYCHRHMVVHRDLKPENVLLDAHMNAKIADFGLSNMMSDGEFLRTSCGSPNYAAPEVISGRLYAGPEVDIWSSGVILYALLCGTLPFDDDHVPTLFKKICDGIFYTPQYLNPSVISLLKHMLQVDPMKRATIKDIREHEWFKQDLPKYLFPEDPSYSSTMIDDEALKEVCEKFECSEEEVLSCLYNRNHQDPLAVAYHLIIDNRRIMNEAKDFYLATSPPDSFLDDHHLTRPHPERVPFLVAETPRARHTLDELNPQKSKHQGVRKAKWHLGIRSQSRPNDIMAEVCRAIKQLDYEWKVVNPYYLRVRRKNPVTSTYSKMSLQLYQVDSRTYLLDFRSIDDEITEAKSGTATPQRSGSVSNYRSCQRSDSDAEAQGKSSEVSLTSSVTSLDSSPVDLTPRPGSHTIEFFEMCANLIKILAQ
T2 sequence (Q9Y478 whole entry partner): as the sequence (Q9Y478 whole entry partner) above
T2 sequence (P54619 whole entry): as the sequence (P54619 whole entry) above
T4 sequence (Q13131 whole entry, canonical isoform): as the sequence (Q13131 whole entry) above
T4 sequence (Q9Y478 whole entry, canonical isoform): as the sequence (Q9Y478 whole entry partner) above
T4 sequence (P54619 whole entry, canonical isoform): as the sequence (P54619 whole entry) above

## N#Cc1c(O)c2c(-c3ccc(-c4ccccc4O)cc3)csc2[nH]c1=O [A-769662]
[1]
  EC50: ~0.8 µM

## Nc1ncnc2c1ncn2[C@@H]1O[C@H](COP(N)(=O)O)[C@@H](O)[C@H]1O [APR, adenosine 5′-monophosphoramidate]
AMPK α2β1γ1 [2]
  EC50: 194 µM
AMPK α2β1γ1 [2]; radiometric, ATP 65 µM, SAMS 200 µM
  Max. fold-activation: 1.9 fold
AMPK α1β1γ1
  EC50: 722 µM
AMPK α2β1γ1 [3]
  EC50: 43 µM
AMPK α1β1γ1 and α2β1γ1 [4]
  EC50: > 50 µM
AMPK α1β1γ1 and α2β1γ1 [5]
  maximal extent of activation: 2 to 3 fold
AMPK α1β1γ1 and α2β1γ1 [6]
  activation before inhibiting kinase activity to below basal levels: negligible activation
[7]
  fold stimulation (maximal extent of activation): 2.25 fold
[8]; partially purified rat AMPK
  fold stimulation (maximal extent of activation): 1.5 fold
[8]; rat AMPK, read-out: half-maximal stimulatory concentration
  EC50: 1.9 µM
